Results taken from the CheMixHub drug solubility set.

Experiment: xn = mol fraction of the nth substance listed, in the solute-free solvent

O=c1cc(CBr)c2ccccc2[nH]1 + CC(C)O + O
solubility (g/100 g solution)
Conditions	278.15 K	283.15 K	288.15 K	293.15 K	298.15 K	303.15 K	308.15 K	313.15 K	318.15 K
x2 = 0.03225	0.0121	0.0159	0.0207	0.0271	0.0355	0.0446	0.057	0.0718	0.0897
x2 = 0.06974	0.0203	0.0259	0.0329	0.0413	0.0516	0.0641	0.079	0.0958	0.119
x2 = 0.1139	0.03	0.0369	0.0456	0.0556	0.0685	0.0827	0.099	0.118	0.14
x2 = 0.1666	0.0397	0.0483	0.0576	0.0694	0.082	0.0986	0.115	0.136	0.158
x2 = 0.2307	0.0498	0.0596	0.0697	0.0834	0.0971	0.113	0.131	0.151	0.173
x2 = 0.3103	0.0585	0.0689	0.0799	0.0928	0.106	0.123	0.141	0.161	0.18
x2 = 0.4117	0.0623	0.0721	0.0833	0.0972	0.112	0.127	0.144	0.163	0.184
x2 = 0.5454	0.065	0.0751	0.0871	0.1	0.114	0.13	0.147	0.164	0.185
x2 = 0.7297	0.0639	0.0739	0.0847	0.0962	0.11	0.124	0.14	0.158	0.176

CC(C)C(=O)Nc1ccc([N+](=O)[O-])c(C(F)(F)F)c1 + C1CCOC1 + CC(C)O
solubility (g/100 g solution)
Conditions	278.15 K	283.15 K	288.15 K	293.15 K	298.15 K	303.15 K	308.15 K	313.15 K	318.15 K	323.15 K
x2 = 0.1	22.2	24.2	27	30.4	34.3	39	43.5	47.9	52	56.1
x2 = 0.2	31.7	33.5	35.9	38.8	42.4	46.1	49.8	53.3	56.9	61
x2 = 0.3	36.9	40.3	43.7	47	50.5	53.9	57.1	60.3	63.6	66.8
x2 = 0.4	40.4	43.2	46.4	50.1	53.3	56.9	60.1	63.1	65.9	68.8
x2 = 0.5	43.9	46.5	49.6	52.6	55.8	59.1	62.3	65.3	68.1	70.9
x2 = 0.6	47.4	49.7	52.6	55.8	58.7	61.9	64.7	67.6	70.2	73.3
x2 = 0.7	50.4	51.9	54.7	57.8	61.2	64.4	67.1	70	72.6	75.4
x2 = 0.8	52.5	54.5	57.4	60.7	63.7	66.4	69	71.8	74.2	77.1
x2 = 0.9	55.2	57.1	59.7	62.6	65.8	68.7	71.3	73.7	75.9	78.2

Nc1ncc(Br)nc1Br + CC(O)CO + O
solubility (g/100 g solution)
Conditions	278.15 K	283.15 K	288.15 K	293.15 K	298.15 K	303.15 K	308.15 K	313.15 K	318.15 K	323.15 K
x2 = 0.02564	0.0095	0.0115	0.0136	0.016	0.0185	0.0208	0.0236	0.0266	0.0296	0.0328
x2 = 0.0559	0.0197	0.0236	0.0277	0.0324	0.0372	0.0418	0.0471	0.0527	0.0583	0.0644
x2 = 0.09214	0.0333	0.0398	0.0466	0.0542	0.0622	0.0696	0.0781	0.0872	0.0963	0.106
x2 = 0.1364	0.0486	0.0576	0.0678	0.0785	0.0902	0.101	0.113	0.126	0.139	0.154
x2 = 0.1915	0.0614	0.0724	0.0858	0.0998	0.115	0.13	0.147	0.163	0.18	0.2
x2 = 0.2621	0.0735	0.0873	0.103	0.12	0.138	0.158	0.176	0.197	0.218	0.244
x2 = 0.3559	0.0818	0.0972	0.116	0.134	0.156	0.178	0.201	0.225	0.251	0.281
x2 = 0.4865	0.0875	0.105	0.125	0.146	0.17	0.196	0.219	0.246	0.276	0.307
x2 = 0.6806	0.0874	0.104	0.124	0.147	0.171	0.196	0.224	0.252	0.281	0.316

O=c1cc(CBr)c2ccccc2[nH]1 + CN1CCCC1=O + O
solubility (g/100 g solution)
Conditions	278.15 K	283.15 K	288.15 K	293.15 K	298.15 K	303.15 K	308.15 K	313.15 K	318.15 K
x2 = 0.0198	0.0293	0.0392	0.0514	0.0682	0.0873	0.117	0.149	0.189	0.234
x2 = 0.04347	0.107	0.136	0.176	0.223	0.281	0.361	0.442	0.546	0.67
x2 = 0.07228	0.271	0.344	0.428	0.538	0.646	0.804	0.971	1.16	1.41
x2 = 0.1081	0.494	0.611	0.762	0.924	1.12	1.37	1.66	1.97	2.35
x2 = 0.1538	0.764	0.928	1.13	1.36	1.65	1.94	2.3	2.71	3.16
x2 = 0.2143	1.04	1.24	1.5	1.76	2.11	2.47	2.9	3.34	3.89
x2 = 0.2979	1.24	1.48	1.76	2.07	2.46	2.87	3.32	3.82	4.37
x2 = 0.421	1.38	1.62	1.91	2.24	2.57	2.99	3.44	3.93	4.47
x2 = 0.6207	1.42	1.64	1.9	2.19	2.5	2.89	3.26	3.7	4.17

COC(=O)Nc1nc2ccccc2[nH]1 + CCO + O
solubility (g/100 g solution)
Conditions	278.15 K	283.15 K	288.15 K	293.15 K	298.15 K	303.15 K	308.15 K	313.15 K	318.15 K
x2 = 0.0417	0.00112	0.00135	0.00165	0.00201	0.00246	0.00289	0.00343	0.00403	0.00475
x2 = 0.08923	0.00223	0.00272	0.0034	0.00411	0.00508	0.00599	0.00715	0.00849	0.01
x2 = 0.1435	0.00325	0.00396	0.00501	0.00619	0.00769	0.0092	0.0111	0.0133	0.0158
x2 = 0.2067	0.00379	0.00471	0.00609	0.00761	0.00949	0.0116	0.0142	0.0172	0.0207
x2 = 0.2813	0.00391	0.00497	0.00649	0.00846	0.0105	0.013	0.0162	0.0199	0.0243
x2 = 0.3701	0.00383	0.0049	0.00658	0.00849	0.011	0.0138	0.0174	0.0219	0.0271
x2 = 0.4762	0.00369	0.0048	0.00651	0.00862	0.0114	0.0146	0.0187	0.0237	0.0298
x2 = 0.6102	0.00358	0.00477	0.00664	0.00884	0.0118	0.0155	0.0202	0.0261	0.0332
x2 = 0.7803	0.0035	0.00477	0.0068	0.0092	0.0125	0.0167	0.0221	0.0289	0.0373

Nc1ncc(Br)nc1Br + CC(C)O + O
solubility (g/100 g solution)
Conditions	278.15 K	283.15 K	288.15 K	293.15 K	298.15 K	303.15 K	308.15 K	313.15 K	318.15 K	323.15 K
x2 = 0.03225	0.0151	0.0182	0.0212	0.0248	0.0285	0.032	0.0361	0.0405	0.0448	0.0495
x2 = 0.06974	0.0399	0.0475	0.0548	0.0636	0.0724	0.0809	0.0905	0.101	0.111	0.122
x2 = 0.1139	0.0745	0.0882	0.101	0.117	0.133	0.148	0.165	0.183	0.202	0.221
x2 = 0.1666	0.109	0.129	0.148	0.171	0.194	0.218	0.242	0.269	0.297	0.327
x2 = 0.2307	0.133	0.157	0.181	0.21	0.24	0.273	0.304	0.34	0.377	0.42
x2 = 0.3103	0.153	0.178	0.21	0.244	0.281	0.318	0.358	0.403	0.449	0.5
x2 = 0.4117	0.166	0.198	0.233	0.273	0.312	0.358	0.403	0.453	0.505	0.567
x2 = 0.5454	0.181	0.216	0.255	0.298	0.344	0.398	0.449	0.51	0.573	0.64
x2 = 0.7297	0.197	0.236	0.277	0.324	0.376	0.432	0.496	0.562	0.634	0.721

Nc1ncn(C2OC(CO)C(O)C2O)c(=O)n1 (centres undefined) + O + CCO
solubility (g/100 g solution)
Conditions	278.15 K	283.15 K	288.15 K	293.15 K	298.15 K	303.15 K	308.15 K	313.15 K	318.15 K
x2 = 0.3899	0.0889	0.101	0.115	0.133	0.153	0.177	0.206	0.238	0.275
x2 = 0.6302	0.186	0.217	0.255	0.298	0.349	0.406	0.469	0.538	0.618
x2 = 0.7932	0.302	0.369	0.443	0.524	0.614	0.709	0.813	0.924	1.05
x2 = 0.9109	0.498	0.588	0.704	0.836	0.976	1.12	1.28	1.46	1.65
